Assay results taken from ChEMBL document CHEMBL5584260, “Identification of coumarin - benzimidazole hybrids as potential antibacterial agents: Synthesis, in vitro and in vivo biological assessment, and ADMET prediction” (Bioorg Med Chem Lett, 2024).
Values after ≈ are worked out from the molar mass of the structure shown.

Tests used:
Pseudomonas aeruginosa [1] = assay: Antibacterial activity against Pseudomonas aeruginosa incubated for 16 hrs by CLSI protocol based microtiter broth dilution method; type: functional
Escherichia coli [2] = assay: Antibacterial activity against Escherichia coli incubated for 16 hrs by CLSI protocol based microtiter broth dilution method; type: functional
Bacillus subtilis [3] = assay: Antibacterial activity against Bacillus subtilis incubated for 16 hrs by CLSI protocol based microtiter broth dilution method; type: functional
Staphylococcus aureus [4] = assay: Antibacterial activity against Staphylococcus aureus incubated for 16 hrs by CLSI protocol based microtiter broth dilution method; type: functional
Pseudomonas aeruginosa [5] = assay: Antibacterial activity against Pseudomonas aeruginosa ATCC 27853 assessed as inhibition of bacterial growth by CLSI protocol based microtiter broth dilution method; type: functional
Acinetobacter baumannii = assay: Antibacterial activity against Acinetobacter baumannii BAA-16051 assessed as inhibition of bacterial growth by CLSI protocol based microtiter broth dilution method; type: functional
Klebsiella pneumoniae [6] = assay: Antibacterial activity against Klebsiella pneumoniae ATCC 27736 assessed as inhibition of bacterial growth by CLSI protocol based microtiter broth dilution method; type: functional
[7] = (§1) Cytotoxicity against human THP-1 cells assessed as cell survival at 50 uM incubated for 24 hrs by MTT assay (reference value: 100.0 +/- 5.24 %); type: toxicity, cell-based; settings: THP-1 cells, read-out: Activity
[8] = (§2) Cytotoxicity against human THP-1 cells assessed as cell survival at 100 uM incubated for 24 hrs by MTT assay (reference value: 100.0 +/- 5.24 %); type: toxicity, cell-based; settings: THP-1 cells, read-out: Activity
THP-1 [9] = assay: Cytotoxicity against human THP-1 cells assessed as cell death at 50 uM incubated for 24 hrs by LDH assay (reference value: 0.00 +/- 0.56 %); type: toxicity, cell-based; settings: thp-1, 24 h
Klebsiella pneumoniae [10] = assay: Antimicrobial activity against Klebsiella pneumoniae ATCC 27736 infected in neutropenic thigh infection BALB/c mouse model assessed as log reduction in bacterial count in thigh at 50 mg/kg pre-infected with bacteria for 3 to 6 hrs followed by compound administration and measured 36 hrs post infection; type: functional; settings: time 30-33 hrs
THP-1 [11] = assay: Cytotoxicity against human THP-1 cells assessed as cell death at 100 uM incubated for 24 hrs by LDH assay (reference value: 0.00 +/- 0.56 %); type: toxicity, cell-based; settings: thp-1, 24 h
THP-1 [12] = assay: as §1; type: toxicity, cell-based; settings: thp-1, 24 h, 50 µM
THP-1 [13] = assay: as §2; type: toxicity, cell-based; settings: thp-1, 24 h, 100 µM
Staphylococcus aureus [14] = assay: Antibacterial activity against Staphylococcus aureus incubated for 24 hrs by serial broth dilution method; type: functional
Bacillus subtilis [15] = assay: Antibacterial activity against Bacillus subtilis incubated for 24 hrs by serial broth dilution method; type: functional
Escherichia coli [16] = assay: Antibacterial activity against Escherichia coli incubated for 24 hrs by serial broth dilution method; type: functional
Pseudomonas aeruginosa [17] = assay: Antibacterial activity against Pseudomonas aeruginosa incubated for 24 hrs by serial broth dilution method; type: functional

| Compound | MIC (Pseudomonas aeruginosa [5]) [µg/mL] | MIC (Acinetobacter baumannii) [µg/mL] | MIC (Klebsiella pneumoniae [6]) [µg/mL] | other results |
| --- | --- | --- | --- | --- |
| O=c1oc2ccccc2cc1/C(Cn1cnc2ccccc21)=N\Oc1ccc(Cl)cc1 |  |  |  | MIC (Pseudomonas aeruginosa [1]): 3.12 µg/mL (≈ 7.26 µM); MIC (Escherichia coli [2]): 3.12 µg/mL (≈ 7.26 µM); MIC (Bacillus subtilis [3]): 0.95 µg/mL (≈ 2.21 µM); MIC (Staphylococcus aureus [4]): 1.56 µg/mL (≈ 3.63 µM) |
| O=c1oc2ccc(Cl)cc2cc1-c1nc2ccccc2n1-c1ccc(Cl)cc1 | > 100 | > 100 | > 100 |  |
| O=c1oc2ccc(Br)cc2cc1-c1nc2ccccc2[nH]1 | > 100 | > 100 | > 100 |  |
| O=c1oc2ccc(Br)cc2cc1-c1nc2ccccc2n1-c1ccccc1 | > 100 | > 100 | > 100 |  |
| O=c1oc2ccccc2cc1-c1nc2ccccc2n1-c1ccccc1 | > 100 | > 100 | > 100 |  |
| CCCCn1c(-c2cc3ccccc3oc2=O)nc2ccccc21 | > 100 | > 100 | 6.25 (≈ 19.6 µM) | viability at 24 h, 50 µM [7]: 89.7%; viability at 24 h, 100 µM [8]: 27.7%; Activity (THP-1 [9]): 8.01%; log(activity) (Klebsiella pneumoniae [10]): >2; Activity (THP-1 [11]): 11.43% |
| O=c1oc2ccccc2cc1-c1nc2ccccc2n1-c1ccc(Cl)cc1 | > 100 | > 100 | > 100 |  |
| O=c1oc2ccc(Cl)cc2cc1-c1nc2ccccc2n1-c1ccc(Br)cc1 | > 100 | > 100 | > 100 |  |
| POLYMYXIN B [listing 1 of 2 here] |  |  |  | Activity (THP-1 [12]): 72.77%; Activity (THP-1 [13]): 54.94%; Activity (THP-1 [9]): 19.64%; Activity (THP-1 [11]): 30.59% |
| O=C(CC(Sc1nc2ccccc2[nH]1)c1ccccc1)c1cc2ccccc2oc1=O (configuration not stated) |  |  |  | MIC (Staphylococcus aureus [14]): 2400 µg/mL (≈ 5630 µM); MIC (Bacillus subtilis [15]): 2300 µg/mL (≈ 5390 µM); MIC (Escherichia coli [16]): 2100 µg/mL (≈ 4920 µM); MIC (Pseudomonas aeruginosa [17]): 2200 µg/mL (≈ 5160 µM) |
| C[C@@H](O)[C@H]1C(=O)N2C(C(=O)O)=C(S[C@@H]3CN[C@H](C(=O)N(C)C)C3)[C@H](C)[C@H]12 [MEROPENEM] | 6.25 (≈ 16.3 µM) | > 50 | 0.78 (≈ 2.03 µM) |  |
| O=c1oc2ccccc2cc1-c1nc2ccccc2n1-c1ccc(Br)cc1 | > 100 | > 100 | > 100 |  |
| O=c1oc2ccc(Cl)cc2cc1-c1nc2ccccc2n1-c1ccccc1 | > 100 | > 100 | > 100 |  |
| CN[C@H](CC(C)C)C(=O)N[C@H]1C(=O)N[C@@H](CC(N)=O)C(=O)N[C@H]2C(=O)N[C@H]3C(=O)N[C@H](C(=O)N[C@H](C(=O)O)c4cc(O)cc(O)c4-c4cc3ccc4O)[C@H](O)c3ccc(c(Cl)c3)Oc3cc2cc(c3O[C@@H]2O[C@H](CO)[C@@H](O)[C@H](O)[C@H]2O[C@H]2C[C@](C)(N)[C@H](O)[C@H](C)O2)Oc2ccc(cc2Cl)[C@H]1O [VANCOMYCIN] | > 50 | 12.5 (≈ 8.63 µM) | > 50 | viability at 24 h, 50 µM [7]: 66.1%; viability at 24 h, 100 µM [8]: 65.9%; Activity (THP-1 [9]): 6.99%; Activity (THP-1 [11]): 13.88% |
| O=c1oc2ccc(Br)cc2cc1-c1nc2ccccc2n1-c1ccc(Cl)cc1 | > 100 | > 100 | > 100 |  |
| O=c1oc2ccc(Cl)cc2cc1-c1nc2ccccc2[nH]1 | > 100 | > 100 | > 100 |  |
| Cc1ccc(-n2c(-c3cc4ccccc4oc3=O)nc3ccccc32)cc1 | > 100 | > 100 | 6.25 (≈ 17.7 µM) | viability at 24 h, 50 µM [7]: 94.1%; viability at 24 h, 100 µM [8]: 27.3%; Activity (THP-1 [9]): 11.25%; log(activity) (Klebsiella pneumoniae [10]): >2; Activity (THP-1 [11]): 16.88% |
| Cc1ccc(-n2c(-c3cc4cc(Cl)ccc4oc3=O)nc3ccccc32)cc1 | > 100 | > 100 | > 100 |  |
| Cc1ccc(-n2c(-c3cc4cc(Br)ccc4oc3=O)nc3ccccc32)cc1 | > 100 | > 100 | > 100 |  |
| O=c1oc2ccccc2c(O)c1C(Sc1nc2ccccc2[nH]1)c1ccc(O)cc1 (configuration not stated) |  |  |  | MIC (Bacillus subtilis [15]): 250 µg/mL (≈ 600 µM); MIC (Escherichia coli [16]): 250 µg/mL (≈ 600 µM) |
| O=c1oc2ccc(Br)cc2cc1-c1nc2ccccc2n1-c1ccc(Br)cc1 | > 100 | > 100 | > 100 |  |
| POLYMYXIN B [listing 2 of 2 here] | 1.25 | 3.12 | 1.25 |  |
